# Laboratory results from ChEMBL document CHEMBL4371042, “Molecular Mechanism of Inhibition of Acid Ceramidase by Carmofur” (J Med Chem, 2019).
# Target: T1, Acid ceramidase (Homo sapiens, UniProt Q13510)
# T1 sequence (Q13510 whole entry): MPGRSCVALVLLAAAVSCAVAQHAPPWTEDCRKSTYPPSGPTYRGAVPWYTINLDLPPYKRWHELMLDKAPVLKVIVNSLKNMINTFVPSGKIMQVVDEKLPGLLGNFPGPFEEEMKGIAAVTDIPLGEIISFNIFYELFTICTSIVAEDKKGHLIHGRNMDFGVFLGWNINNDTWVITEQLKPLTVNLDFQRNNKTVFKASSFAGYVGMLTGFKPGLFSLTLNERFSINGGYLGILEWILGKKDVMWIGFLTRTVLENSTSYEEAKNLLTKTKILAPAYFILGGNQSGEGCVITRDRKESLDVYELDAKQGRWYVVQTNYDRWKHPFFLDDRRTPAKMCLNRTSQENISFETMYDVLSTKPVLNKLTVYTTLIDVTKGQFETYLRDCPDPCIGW
# Assay: Non-competitive inhibition of human acid ceramidase
structure (smiles),measurement,value
O=C(NCCCCc1ccccc1)n1c(=O)oc2ccccc21,Ki,64 nM
